Experimental data from publication PMC12564302, “Discovery of N-Hydroxypyridinedione-Based Inhibitors of HBV RNase H: Design, Synthesis, and Extended SAR Studies” (International Journal of Molecular Sciences, 2025).
Values after ≈ are worked out from the molar mass of the structure shown. “Also recorded” adds a separate entry of the source. Read-outs that look alike come from different tables or passages of the source.

How the values were obtained:
[1] = tested on: HBV replication in HepDES19 cells; test: qPCR HBV replication inhibition assay; assay type: cell-based, HBV genotype D
Procedure: (§1) HepDES19 cells are a HepG2 cell-line derivative that has been stably transfected with an HBV genotype D genome containing a tetracycline repressible promoter. HepDES19 cells were maintained on collagen-coated plates in Dulbecco’s modified Eagle’s medium (DMEM/F12) (Cytiva Life Sciences, Marlborough, MA, USA) supplemented with 10% fetal bovine serum (FBS), streptomycin (100 µg/mL), and penicillin (100 IU/mL), and incubated at 37 °C with 5% CO2 and saturating humidity. Cells were cultured with 1 µg/mL tetracycline to inhibit the expression of the stably integrated HBV genome, and HBV replication was activated upon removal of tetracycline from the culture medium.
HBV replication inhibition in HepDES19 cells was assessed using a strand-preferential quantitative PCR assay as previously described. HepDES19 cells were seeded in 96 well plates at 4 × 10^4 cells/well for 48 h followed by the addition of serial diluted compound with a final concentration of 1% DMSO for 72 h, after which cells were lysed, and qPCR was performed as described in Li et al.. Effective concentration 50% (EC50) values were calculated from data for the (+) polarity DNA strand data using GraphPad Prism version 10’s four-parameter log (inhibitor) versus response algorithm, with the bottom value set to zero. Three or more replicate assays were performed on different days.

[2] = MTS cytotoxicity assay; assay type: cell-based; conditions: human, HepDES19 cells, pH 7.4
Procedure: as §1
Cell viability was assessed using the CellTiter 96^TM Aqueous Non-Radioactive Cell Proliferation assay (MTS) (Promega, Madison, WI, USA) as described previously. HepDES19 cells were seeded in 96 well plates at 1 × 10^4 cells/well for 48 h. Cells were then incubated with serial diluted compound, with a final concentration of 1% DMSO, for 72 h. Following compound incubation, background absorbance values were subtracted, and the data were converted into percent cell viability. The cytotoxic concentration 50% (CC50) values were calculated using GraphPad Prism’s four-parameter log (inhibitor) versus response algorithm, with the bottom value set to zero. Three or more replicate assays were performed on different days.

[3] = Solubility limit assay; assay type: physicochemical; conditions: DMEM-F12 without phenol red with 10% FBS, pH 7.4, plasma or biological fluid, kinetic from dmso stock
Procedure: Solubility limits of compounds were tested as previously reported in DMEM-F12 without phenol red (Gibco, Grand Island, NY, USA) but with the media supplemented with 10% FBS (pH 7.4) to mimic cell culture experiments. In a 384-well optically clear plate, compounds were serially diluted in pH 7.4 buffer (upper limit 200 µM, DMSO 1%) then read at 620 nm. Solubility limits were determined by plotting compound concentration (µM) against optical density (OD) and identifying an inflexion point. The inflexion point is defined by a substantial increase in OD brought on by increasing turbidity, and the compound concentration at this point is known as the solubility limit. Each compound had at least two replicate assays performed on different days.

[4] = Parallel artificial membrane permeability assay; assay type: in vitro ADME; conditions: PAMPA, pH 7.4, PAMPA
Procedure: The evaluation of apparent passive permeability (Papp) at pH 7.4 was performed using a donor/acceptor cassette (Innovative Laboratory Products, Phoenix, AZ, USA and Sigma Aldrich, Burlington, MA, USA), which simulates the apical and basolateral sides of the small intestine epithelium, as previously described. An artificial membrane made of 1% w/v lecithin/dodecane was applied to the poly (vinylidene fluoride) (PVDF) membrane filter and allowed to dry. Following drying, compounds (200 µM) were diluted in buffer at pH 7.4 and added to the donor side of the cassette. The same pH buffer was added on the acceptor side of the cassette, after which it was assembled and incubated at room temperature with shaking at 250 rpm for 2 h, before reading the absorbance of 100 µL from the acceptor well on a plate reader between 230 and 700 nm. The Papp (cm/s) values for compounds were determined by normalizing to the compound absorbance at equilibrium using the peak absorbance point for each compound, buffer volume, incubation time, and membrane porosity. Two or more replicate assays were conducted on different days.

[5] = Hepatitis B virus, HepDES19, 72 h, pH 7.4, HepDES19 cells, 72 h, (+) polarity DNA strand, pH 7.4, read-out: EC50
[6] = pH 7.4, DMEM-F12 with 10% FBS, 1% DMSO, upper limit 200 µM, read-out: Solubility Limit
[7] = pH 7.4, read-out: Solubility Limit Interpretation
[8] = pH 7.4, 200 µM, 2 h, read-out: Papp
[9] = pH 7.4, read-out: Papp Interpretation
[10] = Hepatitis B virus, HepDES19, 72 h, experimental potencies of the E/Z mixture, read-out: EC50 mix

Compound	EC50 [1, 5] [µM]	CC50 at 72 h [2] [µM]	solubility [3, 6] [µM]	solubility [3, 7] [µM]	Papp at 2 h, 200 µM [4, 8] [×10⁻⁶ cm/s]	Papp at 2 h, 200 µM [4, 9] [×10⁻⁶ cm/s]	EC50 [1, 10] [µM]	anti-HBV activity (in words) ([1]; HepDES19 cells)	EC50 ([1]; HepDES19 cells, 72 h, (+) polarity DNA strand, pH 7.4, read-out: EC50) [µM]
CC(=Nc1cc(F)ccc1F)c1c(C)cc(=O)n(O)c1O [Compound 27, 5-(1-((2,5-difluorophenyl)imino)ethyl)-1,6-dihydroxy-4-methylpyridin-2(1H)-one]	1.97 ± 0.6	58.4 ± 21.9	> 200	> 100	2.4	> 1	–	–	–
CC(=Nc1ccccc1F)c1c(C)cc(=O)n(O)c1O [Compound 21, 5-(1-((2-fluorophenyl)imino)ethyl)-1,6-dihydroxy-4-methylpyridin-2(1H)-one]	2.2 ± 0.5	86.3 ± 10.2	> 200	> 100	5.72	> 1	–	–	–
CC(=NOCc1ccc(Cl)cc1Cl)c1c(C)cc(=O)n(O)c1O [Compound 31, 5-(1-(((2,4-dichlorobenzyl)oxy)imino)ethyl)-1,6-dihydroxy-4-methylpyridin-2(1H)-one]	0.5	34.4 ± 14.1	> 200	> 100	4	> 1	0.53 ± 0.3	–	–
CC(=NCc1ccccc1Cl)c1c(C)cc(=O)n(O)c1O [Compound 36, 5-(1-((2-chlorobenzyl)imino)ethyl)-1,6-dihydroxy-4-methylpyridin-2(1H)-one]	2.77 ± 0.8	52.7 ± 29.3	167 (≈ 51.1 µg/mL)	> 100	3.04	> 1	–	–	–
CC(=Nc1ccc(F)c(Cl)c1)c1c(C)cc(=O)n(O)c1O [Compound 29, 5-(1-((3-chloro-4-fluorophenyl)imino)ethyl)-1,6-dihydroxy-4-methylpyridin-2(1H)-one]	3.25 ± 1	70.8 ± 18.4	> 200	> 100	3.65	> 1	–	–	–
CC(=NCCOc1ccc(Cl)cc1)c1c(C)cc(=O)n(O)c1O [Compound 43, 5-(1-((2-(4-chlorophenoxy)ethyl)imino)ethyl)-1,6-dihydroxy-4-methylpyridin-2(1H)-one]	17.2 ± 6.6	30.1 ± 12.5	> 200	> 100	0.86	< 1	–	–	–
CC(=Nc1c(F)cccc1F)c1c(C)cc(=O)n(O)c1O [Compound 28, 5-(1-((2,6-difluorophenyl)imino)ethyl)-1,6-dihydroxy-4-methylpyridin-2(1H)-one]	2.73 ± 1	52.6 ± 20.5	> 200	> 100	2.48	> 1	–	–	–
CC(=NCc1cc(F)cc(F)c1)c1c(C)cc(=O)n(O)c1O [Compound 42, 5-(1-((3,5-difluorobenzyl)imino)ethyl)-1,6-dihydroxy-4-methylpyridin-2(1H)-one]	73.7 ± 26.3	82.9 ± 24.6	> 200	> 100	1.53	> 1	–	–	–
CC(=NOCc1ccccc1Cl)C1C(=O)NC(=O)NC1=O [Compound 45, 5-(1-(((2-chlorobenzyl)oxy)imino)ethyl)pyrimidine-2,4,6(1H,3H,5H)-trione]	100	100	–	–	–	–	–	inactive; also recorded: lack of inhibition; also recorded: lack of activity	–
CC(=NOCc1ccc(Cl)c(Cl)c1)c1c(C)cc(=O)n(O)c1O [Compound 30, 5-(1-(((3,4-dichlorobenzyl)oxy)imino)ethyl)-1,6-dihydroxy-4-methylpyridin-2(1H)-one]	1.77 ± 0.7	49.7 ± 16.4	> 200	> 100	1.59	> 1	1.77 ± 0.7	–	–
CC(=Nc1ccccc1Br)c1c(C)cc(=O)n(O)c1O [Compound 25, 5-(1-((2-bromophenyl)imino)ethyl)-1,6-dihydroxy-4-methylpyridin-2(1H)-one]	4.53 ± 2.5	45.8 ± 4.6	> 200	> 100	3.12	> 1	–	–	–
CC(=NCc1cccc(Br)c1)c1c(C)cc(=O)n(O)c1O [Compound 34, 5-(1-((3-bromobenzyl)imino)ethyl)-1,6-dihydroxy-4-methylpyridin-2(1H)-one]	13.6 ± 2.8	22.6 ± 16.7	> 200	> 100	1.11	> 1	–	–	–
CC(=Nc1ccccc1Cl)c1c(C)cc(=O)n(O)c1O [Compound 23, 5-(1-((2-chlorophenyl)imino)ethyl)-1,6-dihydroxy-4-methylpyridin-2(1H)-one]	2.42 ± 1	76.8 ± 5.9	> 200	> 100	2.83	> 1	–	–	–
CC(=Nc1ccc(F)cc1F)c1c(C)cc(=O)n(O)c1O [Compound 26, 5-(1-((2,4-difluorophenyl)imino)ethyl)-1,6-dihydroxy-4-methylpyridin-2(1H)-one]	2.83 ± 1.1	54.1 ± 27.7	> 200	> 100	3.81	> 1	–	–	–
CC(=NCc1ccc(F)cc1)c1c(C)cc(=O)n(O)c1O [Compound 40, 5-(1-((4-fluorobenzyl)imino)ethyl)-1,6-dihydroxy-4-methylpyridin-2(1H)-one]	16.5 ± 3.5	15.4 ± 7.4	> 200	> 100	1.1	> 1	–	–	–
CC(=NCc1cccc(F)c1)c1c(C)cc(=O)n(O)c1O [Compound 39, 5-(1-((3-fluorobenzyl)imino)ethyl)-1,6-dihydroxy-4-methylpyridin-2(1H)-one]	27.6 ± 3.7	19.3 ± 10.5	> 200	> 100	1.89	> 1	–	–	–
2-amino-4-(2-bromophenoxy)-6-iminopyrimidin-1(6H)-ol [Compound 44]	–	–	–	–	–	–	–	inactive against HBV	> 100
CC(=NCc1ccccc1Br)c1c(C)cc(=O)n(O)c1O [Compound 33, 5-(1-((2-bromobenzyl)imino)ethyl)-1,6-dihydroxy-4-methylpyridin-2(1H)-one]	8.45 ± 3.5	51.3 ± 20.9	> 200	> 100	1.22	> 1	–	–	–
CC(=NOCc1ccccc1I)c1c(C)cc(=O)n(O)c1O [Compound 32, 1,6-dihydroxy-5-(1-(((2-iodobenzyl)oxy)imino)ethyl)-4-methylpyridin-2(1H)-one]	1.77 ± 0.5	54.1 ± 13.7	100 (≈ 41.4 µg/mL)	> 100	3.29	> 1	1.77 ± 0.5	–	–
